One data set concerns hippocampal CA1 neurons. As to conditions: in vivo, transient global ischemia; cited from earlier work.
Data set [1] deals with primary embryonic cultures and differentiated PC12 cells. As to conditions: at dosages that inhibit activation of JNKs; after trophic withdrawal and in mice treated with 1-methyl-4-phenyl tetrahydropyridine; cited from earlier work.
In data set [2] the test system is cultured chick embryonic dorsal root ganglion, sympathetic, ciliary and motor neurons. To be noted: cited from earlier work.
For a further data set, the system named is βTC-3 cell cultures. Briefly: Cellular import of fluorescein-labeled TAT and TAT-IB1(s) peptides. The data set is classed as cell-based. To be noted: for entry of fluorescein labeled peptide into cells: labeled peptides (1 PM), BSA 1 μM, βTC-3 cells. How it is done: The ability of the L- and D-enantiomeric forms of TAT and TAT-IB(s) peptides (“TAT-IB peptides”) to enter cells was evaluated. L-TAT, D-TAT, L-TAT-IB1(s), and D-TAT-IB1(s) peptides [SEQ ID NOs: 5, 6, 9 and 12, respectively] were labeled by N-terminal addition of a glycine residue conjugated to fluorescein. Labeled peptides (1 PM) were added to βTC-3 cell cultures, which were maintained as described in Example 3. At predetermined times cells were washed with PBS and fixed for five minutes in ice-cold methanol-acetone (1:1) before being examined under a fluorescence microscope. Fluorescein-labeled BSA (1 μM, 12 moles/mole BSA) was used as a control.
Little to no signal was present at 48 hours.
Fluorescent signals from these all-D retro-inverso peptides were still very strong 1 week later, and the signal was only slightly diminished at 2 weeks post treatment.

Another data set relates to JNK. As to conditions: JBDs of IB1 and IB2 vs c-Jun or ATF2; cited from earlier work.
In another data set the test system is βTC-3 cells. Briefly: IL-1β induced pancreatic beta-cell death, peptide addition. Format: cell-based. As to conditions: one single addition of peptide 1 μM, two days of incubation with IL-1β. Here is the method:
Inhibition of IL-1β induced pancreatic beta-cell death by the D-TAT-IB1(s) peptide was analyzed. βTC-3 cells were incubated as described above for 30 minutes with one single addition of the indicated peptides (1 μM), then IL-1 (10 ng/ml) was added.
Apoptotic cells were then counted after two days of incubation with IL-1β by use of Propidium Iodide and Hoechst 33342 nuclear staining. A minimum of 1,000 cells were counted for each experiment. Standard Error of the Means (SEM) are indicated, n=5.
Long term inhibition of IL-1P induced cell-death by the D-TAT-IB1 peptide was also analyzed. βTC-3 cells were incubated as above for 30 minutes with one single addition of the indicated peptides (1 μM), then […] (10 ng/ml) was added, followed by addition of the cytokine every two days. Apoptotic cells were then counted after 15 days of incubation with IL-1 by use of propidium iodide and Hoechst 33342 nuclear staining. […] A minimum of 1.000 cells were counted for each experiment.

We go through nine molecules from patent publication US20180170983A1, “New Use of Cell-Permeable Peptide Inhibitors of the JNK Signal Transduction Pathway for the Treatment of Mild Cognitive Impairment” (Xigen Inflammation Ltd., priority 2015, published 2018).

Square brackets hold non-standard residues; d marks the D form. Ends that are not written are not given here.

Turning to `N#CC(c1ccnc(NCCc2cccnc2)n1)c1nc2ccccc2s1` (stereo not shown) [AS601245], the “protection against the delayed loss of hippocampal CA1 neurons” value in the data set on hippocampal CA1 neurons is listed as “provided significant protection”.

As to `CCSCc1ccc2c(c1)c1c3c(c4c5cc(CSCC)ccc5n5c4c1n2[C@H]1C[C@](O)(C(=O)OC)[C@]5(C)O1)CNC3=O` [CEP-1347], in data set [1], the neuronal survival entry was “promotes neuronal survival”. Also, the “long term-survival of neurons” value in data set [2] is “can promote long term-survival”. For `CC(C)C[C@@H](NC(=O)[C@@H](Cc1ccccc1)NC(=O)[C@H]1CCCN1C(=O)[C@@H](CCC(N)=O)NC(=O)[C@H](NC(=O)[C@H]1CCCN1C(=O)[C@@H](CCCNC(=N)N)NC(=O)[C@@H](CO)NC(=O)[C@@H](CCC(N)=O)NC(=O)[C@H](N)CC(=O)O)C(C)C)C(=O)N[C@H](CC(N)=O)C(=O)N[C@H](CC(C)C)C(=O)N[C@@H](C(=O)N[C@@H](C(=O)N1CCC[C@@H]1C(=O)N[C@H](CCCNC(=N)N)C(=O)N[C@H](CCCCN)C(=O)N1CCC[C@@H]1C(=O)N[C@H](CCCNC(=N)N)C(=O)N1CCC[C@@H]1C(=O)N1CCC[C@@H]1C(=O)N[C@H](CCCNC(=N)N)C(=O)N[C@H](CCCNC(=N)N)C(=O)N[C@H](CCCNC(=N)N)C(=O)N[C@H](CCC(N)=O)C(=O)N[C@H](CCCNC(=N)N)C(=O)N[C@H](CCCNC(=N)N)C(=O)N[C@H](CCCCN)C(=O)N[C@H](CCCCN)C(=O)N[C@H](CCCNC(=N)N)C(=O)NCC(=O)O)[C@H](C)O)[C@H](C)O` [XG-102], the “stability inside the cells” value in the data set with βTC-3 cell cultures is recorded as “extremely stable inside the cells”.

With “GRKKRRQRRR (Description of sequence Peptide L-TAT (see Table 1))”, in the data set on βTC-3 cell cultures, the “entry of fluorescein labeled peptide into cells” value was “efficiently and rapidly (less than five minutes) entered cells”. The same measure, in the same setting: in the case of “GRKKRRQRRRPPRPKRPTTLNLFPQVPRSQD [L-TAT-IB1(s)]” it was “efficiently and rapidly (less than five minutes) entered cells”. Consider “IPSPSVEEPHKHRPTTLRLTTLGAQDS (Description of sequence Peptide IB2-long (see Table 1))”, for which the “efficiency in binding JNK relative to c-Jun or ATF2” value with JNK is “approximately 100 fold”.

Regarding “PGTGCGDTYRPKRPTTLNLFPQVPRSQDT (Description of sequence peptide IB1-long (see Table 1))”, the “efficiency in binding JNK relative to c-Jun or ATF2” value in the data set on JNK is “approximately 100 fold”. With “RRRQRRKKRG (D-amino acids; Description of sequence Peptide D-TAT (see Table 1); MUTAGEN (1)..(10) all amino acids are D-amino acids)”, the “stability inside the cells” value with βTC-3 cell cultures is “extremely stable inside the cells”.

As for “TDQSRPVQPFLNLTTPRKPRYTDPPRRRQRRKKRG ([dT][dD][dQ][dS][dR][dP][dV][dQ][dP][dF][dL][dN][dL][dT][dT][dP][dR][dK][dP][dR][dY][dT][dD][dP][dP][dR][dR][dR][dQ][dR][dR][dK][dK][dR]G) [D-TAT-IB1]”, in the data set with βTC-3 cells, the IL-1 induced apoptosis entry is “decreased IL-1 induced apoptosis to a similar extent as L-TAT-IB peptides”.
